Data from patent US6756362B2, “Methods and compositions based on inhibition of cell invasion and fibrosis by anionic polymers” (priority 1991, dated 2004).

Assays:
[1] = test system: epidural fibrosis at laminectomy site, Lewis inbred rats; assay: Epidural fibrosis after lumbar laminectomy in rats, gross evaluation; format: in vivo, rat; parameters: TOTAL SCORE / TOTAL SCORE 2 WEEKS: scale not given here; conditions: for inhibition of scar formation (in words): versus buffer control; for TOTAL SCORE 2 WEEKS: Table 4, 2 weeks post-implantation; for Bone Growth / Deep Scar / Gelfoam Appearance: score 0-3 per Table 1; for Bone Growth / Deep Scar / Gelfoam Appearance / Superficial Scar: agent-soaked GELFOAM in laminectomy site; for Superficial Scar: score 1-3 per Table 1
Experimental: Epidural fibrosis was investigated after lumbar laminectomy in rats. In this model, a laminectomy was performed at the lumbar 3 and 5 vertebrae and then the test agent was applied to the laminectomy site. Subsequently, the laminectomy sites were examined for fibrosis by gross dissection or by histological analysis.
Laminectomies (described below) were performed at lumbar vertebrae L3 and L5 to provide auto-controls within each animal. Segments of GELFOAM® (Upjohn) soaked with experimental or control solutions were inserted into the laminectomy site. The soared GELFOAM® fragments were prepared and coded 24 hours beforehand. The GELFOAM® segments were soaked in solutions of dextran sulfate in calcium/magnesium-free phosphate buffered saline (CMF-PBS), dextran in CMF-PBS, or CMF-PBS alone. In some laminectomy sites, the GELFOAM® fragments were omitted, in order to serve as sham operations. Subsequently, the evaluation by gross dissection was done without knowledge of which solutions had been placed in which laminectomy site. Thus, the experiments were double-blind.
Lewis inbred rats were anesthetized with 4% chloral hydrate (34 mg/100 g body weight). The dorsal skin was incised and the paraspinal muscles were separated from the spinous processes of lumbar vertebrae L2 through L6. The spinous processes of L3 and L5 were removed with a rongeurs; then the vertebral lamina was removed with a micro-rongeurs creating a rectangular laminectomy defect 4×2 mm in size. After bleeding was stopped, a GELFOAM® segment was placed into the laminectomy site according to a randomized protocol. The overlying paraspinal muscles were closed over the site by suturing the superficial fascia together with resorbable 6-0 PDS II (Ethicon). The skin incision was closed with wound clips.
The animals were kept for two weeks prior to gross evaluation. At that time, the rats were anesthetized with 4% chloral hydrate and the wound was reopened by incising, the skin and separating the paraspinal muscles. The quality and quantity of scar tissue above the laminectomy site, the appearance of the GELFOAM® and the extent of new bone growth was evaluated by visual and tactile observation during sharp dissection. After the gross evaluation was complete, the rats were euthanized by anesthesia overdose.
All gross evaluations were made prior to breaking the treatment code, but the observations have been tabulated and presented below according to treatment group.

[2] = test system: 3T3 cells; assay: Colorimetric cell adhesion assay, 3T3; format: cell-based, mouse; conditions: 3T3 cells on PLL; 4 hr incubation; FIG. 7
Experimental: (§1) Cell lines. Murine 3T3 fibroblast (NIH), rat C6 glioma (Paganetti et al., 1988, J. Cell Biol. 107:2281) and MCG-28 young immortalized mouse astrocyte (a murine neonatal astrocyte line immortalized with SV-40) were grown in medium composed of Dulbecco's modified Eagle medium (DMEM), 10% fetal calf serum (Gibco Laboratories), and penicillin G/streptomycin (100 units/ml, 100 μg/ml respectively, Gibco Laboratories). For the stripe assay, confluent plates were disaggregated with 0.05% trypsin, 0.53 mM EDTA (Gibco Laboratories) and seeded at 200,000 cells/ml (3 ml/plate). For the cell adhesion assays, confluent cultures were disaggregated with 0.03% EDTA and plated in a 96-well microtiter plate at 20,000-100,000 cells per well. PC12 cells, a pheochromocytoma cell line (Green L. A. & Tischler A. S., 1976, Proc. Natl. Acad. Sci. U.S.A. 73:2424), were grown in medium containing Roswell Park Memorial Institute (RPMI) medium 1640 (Gibco Laboratories), 10% horse serum, 5% fetal calf serum (FCS), and penicillin G/streptomycin (100 units/ml, 100 μg/ml respectively, Gibco Laboratories). The cells were disaggregated with 0.03% EDTA and plated in a 96-well microtiter plate at 3,000 cells per well.
Microtiter plates were precoated with poly-L-lysine and blocked with 1% BSA in DMEM for 20 min prior to addition of cells. The cells were plated on the precoated 96-well plates and test compounds were added to the culture medium. Following 4-24 hr incubation at 36° C., 5% C02, in a humidified incubator, the tetrazolium salt MTT (3-(4,5-dimethylthazol-2-yl)-2,5-diphenyl tetrazolium bromide) was added. The cultures were incubated for 2 hr to allow mitochondrial succinate dehydrogenase, found in viable cells, to […] the MTT to its formazan blue reaction product. The media was aspirated and the wells were rinsed to remove all detached cells. The formazan blue reaction product in attached cells was solubilized with 0.08 N HCl in isopropanol, and the plates were read in a microtiter plate reader (Dynatech MR4000) at 570 nm with a 630 nm reference filter. The resulting optical density readings are directly related to the number of viable cells in the well (Mosmann, T., 1983, J. Immunol. Methods 65:55-63). The samples were run in 3-6 replicates per point and the SD was less than 5%.
The adhesion of fibroblasts to PLL-coated microtiter plates in the presence of test compounds in the culture medium was evaluated using an MTT assay as described in Section 8.1.5., supra, and the number of attached cells was expressed as percent of control. The effect of 4 hr incubation in the presence of heparin, pentosan polysulfate, dextran sulfate, and dextran on adhesion of rat meningeal fibroplasts (RMF) and 3T3 cells to PLL is shown in FIG. 7.

[3] = test system: PC12 cells; assay: PC12 neurite outgrowth assay; format: cell-based; conditions: NGF-primed PC12 cells; scored 2 days later
Experimental: as §1
PC12 cells were primed with 20 ng/ml NGF for 8 days, collected with 0.03% EDTA in PBS and plated in precoated 96-well microtiter plates at 3,000 cells/well. The microtiter plates were precoated with poly-L-lysine and blocked with adhesion medium (1% BSA in RPMI) for 20 min prior to addition of cells. The cells were grown in adhesion medium supplemented with 20 ng/ml NGF. The cells were allowed to attach for 2 hr prior to the addition of the test compounds (Akeson and Warren, 1986, Exp. Cell Res. 162:347-362).
PC-12 cells primed with NGF were plated in 96-well plates. Test solutions were added to the wells and the cells were scored 2 days later as (+) if neurites of at least two cell bodies diameter in length were present on the majority of the cells, and (−) if no or only short processes were present. […] The compounds tested included GAGs (heparin, dermatan sulfate, chondroitin sulfate A, keratan sulfate and hyaluronic acid), sulfated carbohydrate polymers (dextran sulfate and pentosan polysulfate), and another polyanionic polymer (e.g., alginic acid).

[4] = Sulfur content; format: physicochemical; conditions: by weight
[5] = Table 2, sum of four criteria, lower = greater inhibition of scar formation, two weeks

Heparin
inhibition of scar formation (in words) ([1]; 20 mg/ml): marginal improvement | TOTAL SCORE ([1]; Table 5, agent 20 mg/ml): 7.3 ± 2.5 | hemorrhage and hematoma formation at the laminectomy site ([1]; rat, in vivo): caused hemorrhage and hematoma formation | number of attached cells compared to untreated controls [2]: decreased | IC100, minimum concentration causing 100% inhibition of neurite outgrowth [3]: 2.6e-07 g/mL | Sulfur Content [4]: 11.8%

dextran [reference compound]
TOTAL SCORE [1, 5]: 8.8 ± 2.4 | TOTAL SCORE 2 WEEKS ([1]; 20 mg/ml): 9.5 ± 2.4 | TOTAL SCORE ([1]; Table 5, agent 20 mg/ml): 8.8 ± 2.4 | Bone Growth ([1]; two weeks): 1.6 ± 0.9 | Deep Scar ([1]; two weeks): 2.3 ± 0.9 | Gelfoam Appearance ([1]; two weeks): 2.2 ± 0.8 | Superficial Scar ([1]; two weeks): 2.7 ± 0.5 | number of attached cells compared to untreated controls [2]: slight increase | IC100, minimum concentration causing 100% inhibition of neurite outgrowth [3]: >0.001 g/mL | Sulfur Content [4]: 0%

dextran sulfate
inhibition of scar formation (in words) ([1]; 20 mg/ml): potent inhibition | TOTAL SCORE [1, 5]: 1.7 ± 0.9 | TOTAL SCORE ([1]; Table 3 dose response, 0.2 mg/ml): 7.8 ± 1.9 | TOTAL SCORE ([1]; Table 3 dose response, 2 mg/ml): 3.0 ± 2.3 | TOTAL SCORE ([1]; Table 3 dose response, 20 mg/ml): 1.3 ± 0.5 | TOTAL SCORE 2 WEEKS ([1]; 20 mg/ml): 1.2 ± 0.5 | TOTAL SCORE ([1]; Table 5, agent 20 mg/ml): 1.7 ± 0.9 | hemorrhage and hematoma formation at the laminectomy site ([1]; rats, applied at laminectomy site): not seen | Bone Growth ([1]; two weeks): 0.1 ± 0.3 | Deep Scar ([1]; two weeks): 0.3 ± 0.5 | Gelfoam Appearance ([1]; two weeks): 0.1 ± 0.3 | Superficial Scar ([1]; two weeks): 1.2 ± 0.4 | number of attached cells compared to untreated controls [2]: decreased | IC100, minimum concentration causing 100% inhibition of neurite outgrowth [3]: 5.2e-07 g/mL | Sulfur Content [4]: 15.3%
